Laboratory results: EP1001769B1, “SOLUBLE PRODRUGS OF PACLITAXEL” (BAKER NORTON PHARMACEUTICALS, INC., priority 1997, dated 1998)
Structures can show the parent of a compound that is named as a salt.

Experiments:
Type in all cases: physicochemical
[1] = Solubility in deionized water; conditions: 0.97 and 0.80 mg in 0.5 ml deionized water, sonicated about 1 minute; 1.54 mg sample needed additional 0.1 ml; upper limit not attained
Method: Solubility: Deionized water (0.5 ml) was added to three samples of the 2'-MPM (1.54 mg, 0.97 mg and 0.80 mg) and the flask sonicated for approximately one (1) minute.

[2] = Extraction from water into CH2Cl2; conditions: about 1 mg in 1 ml water stirred with 1 ml CH2Cl2; residue of organic phase weighed
Method: Extraction: Three samples (1.2, 1.0 and 0.98 mg) were dissolved in water (1 ml) and vigorously stirred with CH2Cl2 (1 ml). The organic phase was transferred to a clean, tared vial and concentrated in vacuo. The residue was weighed and compared to the theoretical input to gauge the effectiveness of the extraction procedure. Average return for this extraction was about 44% of theoretical.

[3] = Aqueous stability of the prodrug in H2O and 0.2M NaCl
Method: Aqueous Stability: The stability of the prodrug in H2O and 0.2M NaCI was examined at both room temperature and under refrigerated conditions. Samples in H2O (0.54 mg in 2 ml) and NaCI (0.57 mg in 2 ml) at room temperature were examined at two minute time intervals (0 through 12 minutes), 2 hours and 24 hours. […] At 4°C the product concentration was unchanged at 24 and 48 hours but decreased to 90% after 72 hours. […] At 4°C the product concentration was unchanged at 24 hours, was 91% at 48 hours and was 88% at 72 hours.

[4] = Stability of paclitaxel-2'-MPA solution in water/polyethylene glycol, analysed by HPLC
Method: The onium salt paclitaxel-2'-MPA was prepared by the method of Nicolaou et al., Angew. Chim. Int. Engl., 33:1583-1587 ([…]). A 2.40 mg/ml solution of the paclitaxel-2'-MPA was prepared by dissolving the salt (10.2 mg) in a solution of water (3.024 ml) and polyethylene glycol (1.234 ml). Samples of this solution were frozen. The frozen samples were slowly warmed to room temperature and homogenized with CH3CN (50 µl). An aliquot (50 µl) was removed and diluted to a final volume of 200 µl with deionized H2O and analyzed via HPLC (20 µl injection).

[5] = as above; conditions: freshly prepared solution 0.53 mg/ml in CH3CN, HPLC trace
[6] = freshly prepared solution 0.53 mg/ml in CH3CN, HPLC trace

SMILES: CC(=O)O[C@H]1C(=O)[C@@]2(C)[C@H]([C@H](OC(=O)c3ccccc3)[C@]3(O)C[C@H](OC(=O)[C@H](Oc4cccc[n+]4C)[C@@H](NC(=O)c4ccccc4)c4ccccc4)C(C)=C1C3(C)C)[C@]1(OC(C)=O)CO[C@@H]1C[C@@H]2O [Paclitaxel 2'-MPM, Paclitaxel-2'-Methylpyridinium Mesylate]
- Solubility [1]: Solution was attained
- Average return for this extraction [2]: about 44 % of theoretical
- product concentration ([3]; H2O, 4°C, 24 hours): unchanged
- product concentration ([3]; H2O, 4°C, 48 hours): unchanged
- product concentration ([3]; H2O, 4°C, 72 hours): 90%
- product concentration ([3]; H2O, room temperature, 2 hours): relatively unchanged
- product concentration ([3]; H2O, room temperature, 24 hours): 56%
- stability in aqueous solution ([3]; aqueous solution, 4°C, 24 hours (summary of Example 2)): unchanged
- stability in aqueous solution, degraded to ([3]; aqueous solution, 4°C, 72 hours (summary of Example 2)): 88-91%
- product concentration ([3]; saline solution (0.2M NaCl), 4°C, 24 hours): unchanged
- product concentration ([3]; saline solution (0.2M NaCl), 4°C, 48 hours): 91%
- product concentration ([3]; saline solution (0.2M NaCl), 4°C, 72 hours): 88%
- drop of product concentration ([3]; saline solution (0.2M NaCl), room temperature, 2 hours): 1-2%
- product concentration ([3]; saline solution (0.2M NaCl), room temperature, 24 hours): 70%
- product concentration ([3]; saline solution (0.2M NaCl), room temperature, first ten minutes): no apparent change

SMILES: CC(=O)O[C@H]1C(=O)[C@@]2(C)[C@H]([C@H](OC(=O)c3ccccc3)[C@]3(O)C[C@H](OC(=O)[C@H](Oc4cccc[n+]4C)[C@@H](NC(=O)c4ccccc4)c4ccccc4)C(C)=C1C3(C)C)[C@]1(OC(C)=O)CO[C@@H]1C[C@@H]2O [2'-MPA, Paclitaxel 2'-Methylpyridinium Acetate]
- 2'-MPA % ([4]; 4°C, 1 Hour): 85%
- Paclita. % ([4]; 4°C, 1 Hour): 15%
- 2'-MPA % ([4]; 4°C, 2 Weeks): 79%
- Paclita. % ([4]; 4°C, 2 Weeks): 9%
- Unkno. % ([4]; 4°C, 2 Weeks): 10%
- 2'-MPA % ([4]; 4°C, 6 Hours): 75%
- Paclita. % ([4]; 4°C, 6 Hours): 11%
- Unkno. % ([4]; 4°C, 6 Hours): 14%
- 2'-MPA % ([4]; 4°C, 18 Hours): 73%
- Paclita. % ([4]; 4°C, 18 Hours): 10%
- Unkno. % ([4]; 4°C, 18 Hours): 17%
- 2'-MPA % ([4]; 4°C, 18 Hours, listed as MPA salt): 73%
- 2'-MPA % ([4]; 4°C, 42 Hours): 79%
- Paclita. % ([4]; 4°C, 42 Hours): 9%
- Unkno. % ([4]; 4°C, 42 Hours): 12%
- 2'-MPA % ([4]; 4°C, 66 Hours): 73%
- Paclita. % ([4]; 4°C, 66 Hours): 11%
- Unkno. % ([4]; 4°C, 66 Hours): 16%
- 2'-MPA % ([4]; Room Temperature, 1 Hour): 78%
- Paclita. % ([4]; Room Temperature, 1 Hour): 14%
- Unkno. % ([4]; Room Temperature, 1 Hour): 8%
- 2'-MPA % ([4]; Room Temperature, 6 Hours): 78%
- Paclita. % ([4]; Room Temperature, 6 Hours): 14%
- Unkno. % ([4]; Room Temperature, 6 Hours): 8%
- 2'-MPA % ([4]; Room Temperature, 18 Hours): 69%
- 2'-MPA % ([4]; Room Temperature, 42 Hours): 73%
- Paclita. % ([4]; Room Temperature, 42 Hours): 17%
- Unkno. % ([4]; Room Temperature, 42 Hours): 10%
- 2'-MPA % ([4]; Room Temperature, 66 Hours): 79%
- Paclita. % ([4]; Room Temperature, 66 Hours): 13%
- Unkno. % ([4]; Room Temperature, 66 Hours): 8%
- 2'-MPA % ([4]; Room Temperature, 90 Hours): 73%
- Paclita. % ([4]; Room Temperature, 90 Hours): 15%
- Unkno. % ([4]; Room Temperature, 90 Hours): 12%
- 2'-MPA peak [4, 6]: 75%
- Unknown peak [4, 6]: 10%
- Paclitaxel peak [5]: 15%
